“Also recorded” adds a separate entry of the source. Values belong to the compound of their own block, whether it stands above or below them.
Columns and labels:
MEF2A (1-95) = target: T1, MEF2A (1-95) (Homo sapiens, UniProt Q02078); assay: Surface plasmon resonance (Biacore T-100) competition: MEF2A (1-95) binding to immobilized HDAC4 (aa 155-220); conditions: for binding of MEF2A to immobilized HDAC4 after incubation with compound: Biacore, increasing concentrations (FIG. 5)
T1 construct: purified MEF2A (1-95) was used as the analyte
T1 sequence (Q02078 1-95): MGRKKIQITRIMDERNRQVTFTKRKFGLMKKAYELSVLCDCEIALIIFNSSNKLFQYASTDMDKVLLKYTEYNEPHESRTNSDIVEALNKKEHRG
Excerpt: Here HDAC4 (aa 155-220) was immobilized on a CM5 sensor chip and purified MEF2A (1-95) was used as the analyte. The binding of MEF2A to HDAC4 at various concentrations generated a series of well-defined sensorgrams (data not shown). […] These technical limitations made it difficult to obtain a quantitative binding constant.

HDAC4:MEF2 interaction = target: T2, HDAC4:MEF2 interaction (Homo sapiens, UniProt Q14814); assay: Mammalian two-hybrid luciferase reporter assay (GAL4-MEF2D / HDAC4-VP16 / GAL4Luc); format: cell-based
T2 sequence (Q14814 1-521): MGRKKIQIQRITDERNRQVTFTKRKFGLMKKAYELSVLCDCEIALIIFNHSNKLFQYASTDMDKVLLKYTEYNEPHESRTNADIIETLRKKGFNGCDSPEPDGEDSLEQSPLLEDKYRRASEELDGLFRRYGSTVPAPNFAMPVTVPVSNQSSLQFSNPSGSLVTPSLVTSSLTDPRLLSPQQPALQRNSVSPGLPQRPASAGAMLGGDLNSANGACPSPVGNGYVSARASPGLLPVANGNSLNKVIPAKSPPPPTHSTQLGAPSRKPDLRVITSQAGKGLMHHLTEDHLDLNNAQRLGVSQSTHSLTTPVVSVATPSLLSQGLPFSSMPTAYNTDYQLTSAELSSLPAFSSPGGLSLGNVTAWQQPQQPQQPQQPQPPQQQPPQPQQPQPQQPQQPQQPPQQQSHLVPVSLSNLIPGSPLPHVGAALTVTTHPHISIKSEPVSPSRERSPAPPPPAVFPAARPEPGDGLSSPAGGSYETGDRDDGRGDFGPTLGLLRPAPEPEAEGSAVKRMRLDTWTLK
Excerpt: In a preferred embodiment, there is disclosed herein a two-hybrid system based assay includes a binding domain fused with a bait, an activating domain fused with a prey, and a reporter gene; and determining a reporter signal level.
A series of MEF2-dependent luciferase reporter assays with transiently transfected MEF2D, HDAC4 and the co-activator p300 were used initially to screen various compounds. But these assays gave weak signal and high frequency of false positives, probably due to the complex transcription activation mechanisms of MEF2 and interference from endogenous factors. Through these observations, it was discovered that a highly sensitive and specific assay that can recapitulate the molecular interaction between HDAC4 and MEF2 inside cells is essential.
Taking advantage of the structural insights, in addition to the MEF2D L67D mutant mentioned above, we introduced a number mutations in HDAC4 that had been previously shown to disrupt HDAC4:MEF2 interaction in vitro. These mutations also diminished the luciferase signal in the cell-based assay (FIG. 3b).

frataxin expression = conditions: Friedreich's ataxia; cited from earlier work
GAL4-VP16 = conditions: 10 μM; non-specific inhibition
[1] = tested on: acetylation of histone but not tubulin; conditions: cited from earlier work
HDAC = conditions: cited from earlier work
MEF2 = assay: in vitro binding, method not stated

direct binding to MEF2 by Biacore (MEF2A (1-95)): beyond the detection limit | normalized luciferase activity in MEF2-HDAC luciferase reporter assay (HDAC4:MEF2 interaction; 24 hrs after treatment (FIG. 4)): decreased in a dose dependent manner
Compound: Nc1ccccc1NC(=O)CCCCCCC(=O)Nc1ccccc1 [BML-210, suberoylanilide orthoaminoanilide]
binding of MEF2A to immobilized HDAC4 after incubation with compound (MEF2A (1-95)): bind MEF2 competitively with HDAC4; also recorded: competitive inhibition

Compound: Nc1ccccc1NC(=O)CCCCCC(=O)Nc1ccccc1 [PAOA, pimeloylanilide orthoaminoanilide]
frataxin expression / induction (frataxin expression): enhance the expression of frataxin | binding of MEF2A to immobilized HDAC4 after incubation with compound (MEF2A (1-95)): dose dependent decrease; also recorded: binds MEF2 competitively with HDAC4 | reduction of reporter signal driven by GAL4-VP16 (GAL4-VP16): 5.6 fold | selective induction of histone versus tubulin acetylation [1]: selectively induce acetylation of histone but not tubulin | expression of HDAC4-VP16 (HDAC4:MEF2 interaction): did not affect | decrease of reporter signal driven by GAL4-MEF2D and HDAC4-VP16 (HDAC4:MEF2 interaction; 10 μM): about 26 fold | inhibition of the reporter signal in the mammalian two-hybrid assay (HDAC4:MEF2 interaction; GAL4-MEF2D/HDAC4-VP16, Hela cells): inhibited the reporter signal in a dose dependent manner | IC50 (HDAC4:MEF2 interaction; based on the mammalian two-hybrid assay): ~5 µM | Kd (HDAC4:MEF2 interaction; estimated assuming equilibrium HDAC4 concentration ~0.5 μM and HDAC4:MEF2 Kd 0.47 μM, read-out: Kd for binding to MEF2 (estimated)): ~5 µM

Compound: O=C(CCCCCCC(=O)Nc1ccccc1)NO [SAHA, Vorinostat]
frataxin expression / induction (frataxin expression): no effect; also recorded: did not have this type of activity

Compound: Cc1ccc(NC(=O)CCCCCC(=O)Nc2ccccc2N)cc1 [compound 106, N^1-(2-aminophenyl)-N^7-p-tolylheptanediamide]
frataxin expression / induction (frataxin expression): very active

Compound: CC(/C=C/C(=O)NO)=C\[C@@H](C)C(=O)c1ccc(N(C)C)cc1 [trichostatin A (TSA), trichostatin A]
frataxin expression / induction (frataxin expression): no effect | IC50 HDAC inhibition (HDAC): low nanomolar range

Kd (MEF2): 810 nM | weakening of binding against wild type HDAC4 (MEF2): 60%
Compound: HDAC4 mutant Val180Lys (in vitro binding) (from UniProt P56524 155-220)

Kd (MEF2): 470 nM
Compound: wild type HDAC4 (in vitro binding) (from UniProt P56524 155-220)

— patent publication US8697729B2, “Small molecules modulator of epigenetic regulation and their therapeutic applications” (University of Southern California, priority 2008, dated 2014)
